Source: patent US20090092642A1, “Skin and/or Hair Products, Containing Compounds With an Isoprenoid Structure” (BEIERSDORF AG, priority 2004, published 2009)

Test system: primary normal human melanocytes
Experiment: Melanogenesis assay (14C-tyrosine incorporation) after 3 days of incubation with test substance
Assay type: cell-based
Details: 3 days incubation
Protocol: (§1) A melanogenesis assay was carried out after 3 days of incubation of primary normal human melanocytes with test substance compared to control. The figures listed in the table give the melanogenesis rates (measured as ^14C-tyrosine incorporation) based on the untreated control (=100%). It results from this that the melanogenesis, i.e., the process of melanine synthesis rises to 217%, 128% or 121%, when the melanocytes are cultivated in the presence of the (2E/Z,6E/Z)-3,7,11-trimethyldodeca-2,6,10-trienal (n=3).
as §1, with “135%” for “217%, 128%”, “113%” for “121%,”, “N-[(1E/Z,2E/Z)-3,7-dimethylocta-2,6-dien-1-ylidene]butane-1-amine (n=2).” for “(2E/Z,6E/Z)-3,7,11-trimethyldodeca-2,6,10-trienal (n=3).”
as §1, with “137%” for “217%, 128%”, “127%” for “121%,”, “(2E/Z)-3,7-dimethylocta-2,6-dienal (n=2-6).” for “(2E/Z,6E/Z)-3,7,11-trimethyldodeca-2,6,10-trienal (n=3).”
as §1, with “131%, 130%” for “217%, 128%”, “117%” for “121%,”, “(1E/Z,2E/Z)-3,7-dimethylocta-2,6-dienal oxime (n=2).” for “(2E/Z,6E/Z)-3,7,11-trimethyldodeca-2,6,10-trienal (n=3).”

CCCC/N=C/C=C(\C)CCC=C(C)C [N-[(1E/Z,2E/Z)-3,7-dimethylocta-2,6-dien-1-ylidene]butane-1-amine]
melanogenesis rate (measured as 14C-tyrosine incorporation) based on the untreated control (=100%), X transverse (0.1 μg/ml, n=2): 113%
melanogenesis rate (measured as 14C-tyrosine incorporation) based on the untreated control (=100%), X transverse (1 μg/ml, n=2): 135%

CC(C)=CCC/C(C)=C/C=N/O [(1E/Z,2E/Z)-3,7-dimethylocta-2,6-dienal oxime]
melanogenesis rate (measured as 14C-tyrosine incorporation) based on the untreated control (=100%), X transverse (0.01 μg/ml, n=2): 117%
melanogenesis rate (measured as 14C-tyrosine incorporation) based on the untreated control (=100%), X transverse (0.1 μg/ml, n=2): 130%
melanogenesis rate (measured as 14C-tyrosine incorporation) based on the untreated control (=100%), X transverse (1 μg/ml, n=2): 131%

CC(C)=CCC/C(C)=C/CC/C(C)=C/C=O [(2E/Z,6E/Z)-3,7,11-trimethyldodeca-2,6,10-trienal]
melanogenesis rate (measured as 14C-tyrosine incorporation) based on the untreated control (=100%), X transverse (0.1 μg/ml (first column so headed), n=3): 128%
melanogenesis rate (measured as 14C-tyrosine incorporation) based on the untreated control (=100%), X transverse (0.1 μg/ml (second column so headed), n=3): 121%
melanogenesis rate (measured as 14C-tyrosine incorporation) based on the untreated control (=100%), X transverse (1 μg/ml, n=3): 217%

CC(C)=CCC/C(C)=C/C=O [(2E/Z)-3,7-dimethylocta-2,6-dienal]
melanogenesis rate (measured as 14C-tyrosine incorporation) based on the untreated control (=100%), X transverse (0.001 μg/ml, n=2-6): 127%
melanogenesis rate (measured as 14C-tyrosine incorporation) based on the untreated control (=100%), X transverse (0.01 μg/ml, n=2-6): 137%
